Experimental data taken from US10517898B2, “Compositions and methods related to hematologic recovery” (The Regents of the University of California, priority 2014, dated 2019).

Test system: PTPσ^−/− BM cells
Assay: Transendothelial migration assay (CFCs from migrated cells in lower chamber)
Type: cell-based
Conditions: 25 μM EHT1864, 16 hours culture, mouse spleen endothelial cell transwell, CFCs of migrated cells (FIG. 3D)
Protocol: Transendothelial migration assays were performed as follows. VeraVec™ mouse spleen endothelial cells (Angiocrine Bioscience, New York N.Y.) were cultured to confluence in […] pore transwells (Corning Incorporated, Corning N.Y.). Transwells were seeded with 200,000 BM cells in IMDM with 10% FBS, 1% penicillin-streptomycin, 125 ng/mL stem cell factor, 50 ng/mL Flt-3 ligand and 20 ng/mL thrombopoietin with or without 25 μM Rac inhibitor, EHT1864 (R&D Systems, Minneapolis, Minn.). 100 ng/mL SDF-1α (R&D) or media was added to the bottom chamber of the transwell. 16 hours post culture, cells in the bottom chamber were collected and CFCs were set up with the migrated cells.

O=c1cc(CN2CCOCC2)occ1OCCCCCSc1ccnc2cc(C(F)(F)F)ccc12 [EHT1864]
transendothelial migration capacity of PTPσ^−/− cells: completely abrogated
